Test results taken from publication PMC11621054, “Biological evaluation of semi-synthetic isoindolinone isomers produced by Stachybotrys chartarum” (Frontiers in Fungal Biology, 2024).

Tests used:
[1] = test system: human α-thrombin; design: method as in Steinert et al., 2022; conditions: 500 nM; ref Steinert et al., 2022; cited from earlier work
[2] = target: T1, human Factor Xa (Homo sapiens, UniProt P00742); design: method as in Steinert et al., 2022; conditions: 500 nM; ref Steinert et al., 2022; cited from earlier work
T1 construct: human Factor Xa, HFXA, > 95% purity; Molecular Innovations; purchased Molecular Innovations HFXA

[3] = Hepatic phase I metabolism (oxidation), horse microsomes; format: in vitro ADME; conditions: 10 µM, 90 min
Description: (§1) Liver microsomes and cytosol were obtained for two organisms, horse and human. Fresh horse liver was purchased locally cut to pieces of ca. 50 g each and frozen in liquid nitrogen. Until further usage, the liver was stored at -80 °C. The preparation of microsomes and cytosol was carried out according to Balk et al. ([Balk et al., 1984]), and the protein content was determined by Bradford assay with bovine serum albumin as a reference ([Bradford, 1976]). Human liver microsomes and cytosol (150 Donors Ultrapool™) were provided by Corning, Inc. (Corning, New York, NY, USA). Besides assay-specific positive controls, all assays included stability controls, moreover, matrix influences were considered. For oxidation, additional non-oxidation controls were included. Each experiment was performed in duplicate. All stated concentrations are final concentration values. The test compounds (acetoxystachybotrylactam acetate-tryptophan 2a, 2b and acetoxystachybotrylactam acetate-tryptamine 3a, 3b ) were extended by the most biologically active derivative previously characterized by our group (acetoxystachybotrylactam acetate-agmatine 4 ) ([Steinert et al., 2022]).
(§2) The phase I metabolism was investigated utilizing a NADPH- regenerating system. […] After centrifugation (4 °C, 10 min, 15,000 rpm), 150 µL of supernatant was diluted with 850 µL H2O, which was subsequently analyzed by HPLC-qToF-HRMS. […]

[4] = Hepatic phase II sulfation, human cytosol; format: in vitro ADME; conditions: 50 µM, 4 h
Description: as §1
(§3) For phase II metabolism, potential sulfation and glucuronidation were investigated. For sulfation, the reaction mixture was pipetted as follows: first, ultrapure water was added and mixed with a 1 mM DTT solution (contains DTT, 100 mM phosphate buffer, 100 µM ascorbic acid, pH 7.4). Then, PAPS (100 µM) and the substance of interest (50 µM) were added, which was concluded by the addition of horse/human cytosol (10 mg protein/mL). For glucuronidation, first, ultrapure H2O, phosphate buffer (50 mM) and MgCl2 (5 mM) were added to the reaction vessel, followed by addition of the investigated substance (50 µM), UDPGA (5 µM), and horse/human microsomes (1 mg protein/mL), respectively. For both assays, the final volume was 100 µL which was subsequently incubated for 4 h at 37 °C in darkness. […] After centrifugation (4 °C, 10 min, 15,000 rpm), 150 µL of supernatant was diluted with 850 µL H2O, which was subsequently analyzed by HPLC-qToF-HRMS. […]

[5] = test system: plasma coagulation; design: method as in Steinert et al., 2022; conditions: ref Steinert et al., 2022; cited from earlier work
[6] = test system: Human liver carcinoma cells (HepG2, HB-8065); design: method as in Steinert et al., 2022; conditions: HepG2; ref Steinert et al., 2022; cited from earlier work
[7] = test system: lung adenocarcinoma cells (A549, CCL-185); design: method as in Steinert et al., 2022; conditions: ref Steinert et al., 2022; cited from earlier work
[8] = Hepatic phase II sulfation, horse cytosol; format: in vitro ADME; conditions: 50 µM, 4 h
Description: as §1, §3

[9] = Hepatic phase I metabolism (oxidation), human microsomes; format: in vitro ADME; conditions: 10 µM, 90 min
Description: as §1, §2

[10] = Hepatic phase II glucuronidation, human microsomes; format: in vitro ADME; conditions: human microsomes, 50 µM, 4 h
Description: as §1
For phase II metabolism, potential sulfation and glucuronidation were investigated. For sulfation, the reaction mixture was pipetted as follows: first, ultrapure water was added and mixed with a 1 mM DTT solution (contains DTT, 100 mM phosphate buffer, 100 µM ascorbic acid, pH 7.4). Then, PAPS (100 µM) and the substance of interest (50 µM) were added, which was concluded by the addition of horse/human cytosol (10 mg protein/mL). For glucuronidation, first, ultrapure H2O, phosphate buffer (50 mM) and MgCl2 (5 mM) were added to the reaction vessel, followed by addition of the investigated substance (50 µM), UDPGA (5 µM), and horse/human microsomes (1 mg protein/mL), respectively. For both assays, the final volume was 100 µL which was subsequently incubated for 4 h at 37 °C in darkness. Quenching and protein precipitation was achieved by adding 200 µL of cold MeCN (-20 °C). After centrifugation (4 °C, 10 min, 15,000 rpm), 150 µL of supernatant was diluted with 850 µL H2O, which was subsequently analyzed by HPLC-qToF-HRMS. For both experiments, 50 µM 7-hydroxycumarin served as positive control.
Chromatographic separation and mass spectrometric detection were identical to the parameters already described for the fragmentation experiments for phase I and phase II glucuronidation metabolism. For sulfation, the HPLC-qToF-HRMS was operated in negative ionization mode at -4.5 kV and otherwise identical source parameters as previously described. […]

[11] = test system: plasma coagulation; design: method as in Steinert et al., 2022; conditions: ref Steinert et al., 2022; cited from earlier work; remark: listed apart in the source

T1 sequence (P00742 235-488 limits assumed): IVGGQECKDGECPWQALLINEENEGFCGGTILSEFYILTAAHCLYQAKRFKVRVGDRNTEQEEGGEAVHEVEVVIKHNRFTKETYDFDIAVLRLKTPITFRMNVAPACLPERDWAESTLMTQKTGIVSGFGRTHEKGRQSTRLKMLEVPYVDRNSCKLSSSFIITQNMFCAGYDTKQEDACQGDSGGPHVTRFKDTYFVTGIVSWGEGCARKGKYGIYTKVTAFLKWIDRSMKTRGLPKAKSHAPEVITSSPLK
T1 sequence (P00742 41-179 partner limits assumed): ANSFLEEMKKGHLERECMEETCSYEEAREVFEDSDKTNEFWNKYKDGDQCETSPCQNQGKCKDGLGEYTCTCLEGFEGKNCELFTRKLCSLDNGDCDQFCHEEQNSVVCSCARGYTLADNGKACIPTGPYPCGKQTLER

In the case of [H]/N=C(/N)c1ccc(NCc2nc3cc(C(=O)N(CCC(=O)O)c4ccccn4)ccc3n2C)cc1 [Dabigatran, dabigatran], the “inhibition of thrombin (positive control)” value [1] is listed as 98.3 ± 0.1%.

In the case of O=C(NC[C@H]1CN(c2ccc(N3CCOCC3=O)cc2)C(=O)O1)c1ccc(Cl)s1 [rivaroxaban], the “inhibition of FXa (positive control)” value [2] is listed as 99.8 ± 0.3%.

For “acetoxystachybotrylactam acetate-agmatine [Compound 4]”, the “phase I conversion, in words” value [3] is given as “fastest among the reaction products to be metabolized”, the “metabolism under sulfation conditions, in words” value [4] is given as “did undergo metabolism” and the “plasma coagulation, prothrombin time” value [5] is given as “prolonged plasma coagulation”. The “cytotoxicity, in words” value [6] was “no cytotoxicity”, the “cytotoxicity, in words” value [7] was “no cytotoxicity” and the “metabolism under sulfation conditions, in words” value [8] was “did undergo metabolism”. For the same compound, the “phase I conversion, in words” value [9] was “fastest among the reaction products to be metabolized”, the “glucuronidation: conversion and formation of glucuronides, in words” value [10] was “best conversion” and the “plasma coagulation, activated partial thromboplastin time” value [11] was “prolonged plasma coagulation”.
